Measurements as given in US20090068290A1, “BIFEPRUNOX DOSES FOR TREATING SCHIZOPHRENIA” (priority 2006, published 2009).

Experiments:
[1] = test system: adult subjects with schizophrenia; assay: PANSS total score, Clinical Study Three (6-week, olanzapine-referenced); type: in vivo, human; conditions: Olanzapine 15 mg, LOCF, ITT
Description: (§1) There were four treatment arms in this study, approximately 144 subjects per arm. […] After completing the Single-Blind Placebo Lead-in Period of at least three days, bifeprunox-treated subjects were titrated from 0.25 mg up to 20 mg/day or 30 mg/day according to a standardized titration scheme over a seven- or eight-day period, respectively. When the assigned dose was reached, subjects were maintained at that dose for the remainder of the six week treatment period. […] Subjects were hospitalized (if not already inpatients) after eligibility for study entry was verified, starting from the Screening Visit until at least 10 days after Baseline. Subjects could be hospitalized longer than 10 days if considered medically necessary by the Investigator. Rating scale assessments for efficacy and abnormal movement disorders were done weekly except for Week 5. Safety assessments were performed at Screening, during treatment and at the end of the study. Subject satisfaction with study medication was assessed at Week 6. Samples of whole blood were obtained at Weeks 2, 4, and 6 for determination of bifeprunox in plasma.
Test Product, Dose and Mode of Administration: Bifeprunox tablets, total daily dose 20 mg or 30 mg (one 20 mg tablet and one 10 mg tablet) administered orally using a once daily dosing regimen.

[2] = Clinical laboratory assessments (prolactin), Clinical Study Three; conditions: olanzapine 15 mg; 6 weeks
Description: To assess the safety and tolerability of bifeprunox using physical examination, weight, waist circumference, vital signs (pulse rate and systolic/diastolic blood pressure [BP], and oral temperature), 12-lead electrocardiogram (ECG), clinical laboratory assessments (hematology, biochemistry including fasting insulin level, fasting glucose, fasting lipid profile, urinalysis, special laboratory assessments for prolactin, IGF-1, IGFBP-3, and thyroid function), need for anticholinergic treatment during double-blind treatment period, concomitant medication use, adverse event (AE) monitoring, and assessments of abnormal movement including the Simpson-Angus Scale (SAS), Barnes Akathisia Scale (BAS), and Abnormal Involuntary Movement Scale (AIMS).

[3] = test system: adult subjects with schizophrenia; assay: CGI responder rate, Clinical Study One; type: in vivo, human; conditions: 6 mg
Description: (§2) There were five treatment groups in this study. […] Study medication was administered once daily. After Baseline measurements were performed, the titration phase was begun. Bifeprunox treated subjects were titrated up to 5 mg, 10 mg or 20 mg according to a standardized titration schedule (Day 1: 0.125 mg, Day 2: 0.25 mg, Day 3: 0.5 mg, Day 4: 1.0 mg, Day 5: 2.0 mg, Day 6: 5.0 mg, Day 7: 10.0 mg, Day 8: 20 mg). When the assigned dose was reached, subjects were maintained at that dose for the remainder of the six-week treatment period.
CLINICAL STUDY ONE: A CGI responder is defined as a subject who is categorized as “very much improved” or “much improved” on the CGI Improvement scale.

[4] = test system: adult subjects with schizophrenia; assay: Adverse events (TEAE, SAE, special interest, discontinuation, EPS-related TEAE), Clinical Study Three; conditions: Risperidone 6 mg
Description: as §1
EPS were assessed using treatment-emergent adverse events such as akathisia, dyskinesia, parkinsoniam, etc. and/or formal rating scales such as SAS, BAS, and/or AIMS.

[5] = test system: adult subjects with schizophrenia; assay: PANSS total score, Clinical Study One (6-week, risperidone-referenced); type: in vivo, human; conditions: for Change from Baseline in PANSS Total Score, Median / Change from Baseline in PANSS Total Score, Mean (S.D.): Risperidone 6 mg, ITT
Description: as §2
Test Product. Dose and Mode of Administration: Bifeprunox tablets, total daily dose 0.125 mg to 20 mg administered orally using a once daily dosing regimen.
The change in the Positive and Negative Symptom Scale (PANSS) total score, from baseline to endpoint, was the primary outcome measure. Secondary efficacy measures included: PANSS positive, PANSS negative, PANSS general psychopathology (GPP) score, PANSS-derived Brief Psychiatric Rating Scale (BPRS) score, Clinical Global Impressions-Severity of Illness (CGI-S), CGI-Improvement (CGI-I) scores, and responder rates. Safety and tolerability evaluations included extrapyramidal symptoms (EPS), weight gain, lipid profile, and serum prolactin.

With `Cc1cc2c(s1)Nc1ccccc1N=C2N1CCN(C)CC1` [Olanzapine, olanzapine, reference compound] the “Change from Baseline in PANSS Total Score, Mean (SD)” value (shortened to “Change from Baseline … (SD)”) ([1]; Week 1) was −9.3 (11.2), the “Change from Baseline in PANSS Total Score, Median” value (shortened to “Change from Baseline … Median”) ([1]; Week 1) was −6 and the “Change from Baseline … (SD)” value ([1]; Week 2) was −15.1 (13.6). For the same compound, the “Change from Baseline … Median” value ([1]; Week 2) was −12, the “Change from Baseline … (SD)” value ([1]; Week 3) was −19.3 (15.8) and the “Change from Baseline … Median” value ([1]; Week 3) was −18. For the same compound, the “Change from Baseline … (SD)” value ([1]; Week 4) was −20.0 (16.5), the “Change from Baseline … Median” value ([1]; Week 4) was −18 and the “Change from Baseline … (SD)” value ([1]; Week 6/Endpoint) was −22.0 (18.2). For the same compound, the “Change from Baseline … Median” value ([1]; Week 6/Endpoint) was −21 and the prolactin [2] was “increases in prolactin”.
In the case of `Cc1nc2n(c(=O)c1CCN1CCC(c3noc4cc(F)ccc34)CC1)CCCC2` [Risperidone, risperidone, reference compound], the “CGI Responder at Endpoint (LOCF), %” value [3] was 36%, the “AKATHISIA, %” value [4] was 3% and the “BALANCE DISORDER, %” value [4] was 1 (<1%). For the same compound, the “DIZZINESS, %” value [4] was 5%, the “DYSARTHRIA, %” value [4] was 1 (<1%) and the “DYSKINESIA, %” value [4] was 1 (<1%). For the same compound, the “EXTRAPYRAMIDAL DISORDER, %” value [4] was 1%, the “HEADACHE, %” value [4] was 12% and the “HYPOKINESIA, %” value [4] was 1 (<1%). For the same compound, the “Hypoaesthesia, %” value [4] was 1 (<1%)), the “MUSCULOSKELETAL STIFFNESS, %” value [4] was 1 (<1%) and the “NECK PAIN, %” value [4] was 1%. The “NERVOUS SYSTEM DISORDERS, %” value [4] was 37%, the “PAIN IN EXTREMITY, %” value [4] was 2% and the “PARAESTHESIA, %” value [4] was 1 (<1%). The “RESTLESS LEGS SYNDROME, %” value [4] was 1 (<1%), the “SEDATION, %” value [4] was 8% and the “SOMNOLENCE, %” value [4] was 9%. The “SPEECH DISORDER, %” value [4] was 1 (<1%), the “TREMOR, %” value [4] was 3% and the “Change from Baseline … Median” value ([5]; Endpoint LOCF) was −14. The “Change from Baseline in PANSS Total Score, Mean (S.D.)” value (“Change from Baseline … (S.D.)” below) ([5]; Week 1, LOCF) was −8.2 (11.1), the “Change from Baseline … Median” value ([5]; Week 1, LOCF) was −7 and the “Change from Baseline … (S.D.)” value ([5]; Week 2, LOCF) was −13.1 (13.9). The “Change from Baseline … Median” value ([5]; Week 2, LOCF) was −12, the “Change from Baseline … (S.D.)” value ([5]; Week 3, LOCF) was −15.3 (14.1) and the “Change from Baseline … Median” value ([5]; Week 3, LOCF) was −13. The “Change from Baseline … (S.D.)” value ([5]; Week 4, LOCF) was −14.4 (14.5), the “Change from Baseline … Median” value ([5]; Week 4, LOCF) was −13 and the “all efficacy measures at endpoint compared to placebo” value ([5]; risperidone 6 mg (Example 4)) was “statistically significant at endpoint compared to placebo for all efficacy measures”. For the same compound, the “separation of active reference from placebo” value ([5]; risperidone 6 mg, 6 weeks) was “showed clear separation from the placebo group”.
